From patent publication US20090324742A1, “Peham dendrimers as excipients” (priority 2006, published 2009) come the findings set out here.

Values after ≈ are worked out from the molar mass of the structure shown.

Data set [1] is described as follows: Aqueous solubility of paclitaxel with PEHAM dendritic polymer (HPLC). The format is physicochemical. The settings on record: DI water without dendrimer, thermodynamic from solid. As for the experimental part:
The sample was subjected to brief ultrasonication and heating at 50° C. for 10 mins., followed by overnight shaking at RT. The sample was then centrifuged for 5 mins. and the paclitaxel content measured by HPLC.

The nature of data set [2]: Solubility enhancement of vitamin D3 by PEHAM dendritic polymers (HPLC). The format is physicochemical. The settings on record: pure Active Material control without dendrimer; detection limit. As for the experimental part: An excess of the cosmetic and nutrient Active Material, vitamin D3, (Sigma) was added to vials containing PEHAM dendritic polymers G=1.0 and G=2.0 with PETGE or TMPTGE cores and amine surfaces, partially PEGylated (25% PEG-550) amine surfaces, or carboxylate surfaces, dissolved in 20% (v/v) aqueous methanol at 1 wt % concentrations. These suspensions were briefly ultrasonicated in a water bath at RT, then incubated overnight at 32° C. and 100 rpm in a shaking water bath, and allowed to equilibrate at RT. The suspensions were filtered through a 0.2-μm Nylon syringe filter to remove not encapsulated Active Material. Solvent was removed and the residue redispersed in DI water. The samples were analyzed for dendrimer-associated vitamin D3 by HPLC. Association results are expressed in ng Active Material per mL solution. […] The pure Active Material as control remains below detection limit of 50 ng/mL.

For `CC(=O)O[C@H]1C(=O)[C@@]2(C)[C@H]([C@H](OC(=O)c3ccccc3)[C@]3(O)C[C@H](OC(=O)[C@H](O)[C@@H](NC(=O)c4ccccc4)c4ccccc4)C(C)=C1C3(C)C)[C@]1(OC(C)=O)CO[C@@H]1C[C@@H]2O` [paclitaxel], the solubility in data set [1] amounted to 0.3 µg/mL (≈ 0.351 µM).
In the case of `C=C1CC[C@H](O)C/C1=C/C=C1\CCC[C@]2(C)[C@@H]([C@H](C)CCCC(C)C)CC[C@@H]12` [vitamin D3], the “vitamin D3 solubility” value in data set [2] is < 0.05 µg/mL.
